The target of one data set is Pannexin 1 (Homo sapiens, UniProt Q96RD7). The following applies: cited from earlier work.
The subject of data set [1] is dependent and non-dependent C57BL/6J mice. Nature of the data set: Mouse limited access 2-bottle choice with chronic intermittent ethanol exposure (CIE). It counts as in vivo. To be noted: for ethanol intake in non-dependent and dependent mice (CIE paradigm): limited access 2-bottle choice, acute IP. The method, then: Exposure of mice to repeated cycles of intermittent ethanol vapor in order to induce dependence increases ethanol drinking following withdrawal in a 2-bottle choice paradigm (112, 113). Thus, the CIE paradigm is used to test the effects of a drug on dependent and nondependent drinking in mice. Briefly, C57BL/6J mutant and WT mice had access to two bottles, one containing water and the other containing 15% (w/v) ethanol, for 2 hours starting 3 hours into the dark phase. Following acquisition of stable alcohol intake, half of the mice were subjected to repeated bouts of ethanol vapor exposure consisting of 16 hours per day for 4 days. Before each exposure to ethanol vapor, mice were IP injected with a solution of 20% v/v ethanol and 68.1 mg/kg pyrazole and immediately placed into ethanol vapor chambers (La Jolla Ethanol Research, CA). Tail blood sampling for blood ethanol level (BAL) determination was carried out daily. Target BALs were 150-200 mg %. Seventy-two hours following removal from the chambers, mice received access to water vs. 20% ethanol for 2 hours, and again over the next 4 days. The following week, mice were re-exposed to the ethanol vapor/control conditions and again tested for t2-bottle choice drinking for 5 days. Three vapor bouts followed by 2-bottle choice were carried out. Mice were weighed every 4-6 days throughout the 2-bottle choice sessions and daily during the vapor exposure bouts. Food and water were available ad libitum and mice were group housed except during the ethanol drinking sessions.

The next data set relates to C57BL/6J mice. In words: Mouse drinking in the dark (DID) binge-like drinking. The format is in vivo. The following applies: for time course of the effect on ethanol intake within the DID session: first 2 h vs whole 4 h session; for ethanol intake in the DID paradigm: mice, 4 h drinking session, vs saline vehicle. The method, then:
The DID paradigm capitalizes on the circadian rhythm in drinking of mice utilizing a discrete time of exposure to ethanol to obtain pharmacologically significant ethanol drinking in a four-day procedure (114, 115). It is considered a preclinical model of binge alcohol drinking (116). Blood ethanol levels of C57BL/6J mice in DID are reliably over 100 mg % following the final drinking bout and produce behavioral intoxication in C57BL/6J mice (115). In the DID paradigm, the water bottle is replaced with a bottle containing 20% ethanol for 2 hours in the home cage 3 hours after lights go off. The design involves 3 daily drinking sessions of 2 hours and a fourth of 4 hours (114, 115).

In the next data set the test system is Wistar rats. To be noted: saccharin 0.004%; 0 and 40 mg/kg IP 90 min prior; 30 min session, FR1; listed as carbenoxolone.
Data set [2] deals with alcohol dependent and nondependent Wistar rats. Nature of the data set: Rat operant self-administration of alcohol (dependent and nondependent rats). The format is in vivo. To be noted: for operant alcohol self-administration (lever press responding for alcohol): both dependent and nondependent rats, alcohol 10% w/v. The method, then:
Self-administration sessions were conducted in standard operant conditioning chambers (Med Associates). The rats were trained to self-administer alcohol as previously reported (13). First, the rats were given free-choice access to alcohol (10% w/v) and water for 1 day in their home cages to habituate them to the taste of alcohol. Second, the rats were subjected to an overnight session in the operant chambers with access to one lever (right lever) that delivered water in a fixed-ratio 1 (FR1) schedule where every lever press is reinforced with delivery of 0.1 ml of solution. Food was available ad libitum during this training. Third, after 1 day off, the rats were subjected to a 2 hour session (FR1) for 1 day and a 1 hour session (FR1) the next day, with one lever delivering alcohol (right lever). All of the subsequent sessions lasted 30 min, and two levers were available (left lever: water; right lever: alcohol) until stable levels of intake were reached. Upon completion of this procedure, the animals were allowed to self-administer a 10% (w/v) alcohol solution and water on an FR1 schedule of reinforcement.
The rats were made dependent by chronic, intermittent exposure to alcohol vapors as previously described (13).
Effect of carbenoxolone (CBX) on alcohol drinking in rats and mice.

The conditions of data set [3]: in vivo; cited from earlier work.
A further data set relates to 11β-HSD1, 11β-HSD2. To be noted: 11β-HSD isozyme specificity per cited reference; cited from earlier work.
Data set [4] deals with inflammasome activation in neurons and astrocytes. The following applies: cited from earlier work.
Another data set deals with dependent rats. To be noted: systemic glucocorticoid receptor antagonism; cited from earlier work.

“Also recorded” adds a separate entry of the source. Where a name gives a salt, the structure may show the parent alone.

Chain of Pannexin 1 (Q96RD7 whole entry, species assumed): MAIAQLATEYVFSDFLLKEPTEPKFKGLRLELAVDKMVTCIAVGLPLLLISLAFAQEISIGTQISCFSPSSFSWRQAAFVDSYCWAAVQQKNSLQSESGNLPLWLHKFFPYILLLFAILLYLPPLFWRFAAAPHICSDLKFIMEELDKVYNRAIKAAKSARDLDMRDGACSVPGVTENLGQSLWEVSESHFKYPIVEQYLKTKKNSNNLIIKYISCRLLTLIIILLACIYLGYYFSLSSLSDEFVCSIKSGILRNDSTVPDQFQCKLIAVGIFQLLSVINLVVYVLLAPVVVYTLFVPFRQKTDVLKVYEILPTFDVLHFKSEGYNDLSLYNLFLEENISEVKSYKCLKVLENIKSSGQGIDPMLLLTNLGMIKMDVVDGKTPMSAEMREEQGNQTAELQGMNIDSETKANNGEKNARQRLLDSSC

With “280: mimetic peptide SRPTEKTIFII [Number 280]”, the “inhibition of Pannexin 1” value with Pannexin 1 is recorded as “inhibited”.
Take “281: mimetic peptide GHGDPLHLEEVKC [Number 281]”: the “inhibition of Pannexin 1” value in the data set with Pannexin 1 is reported as “inhibited”.
Regarding “282: mimetic peptide SSFSWRQAAFVDS [Number 282]”, the “inhibition of Pannexin 1” value with Pannexin 1 is listed as “inhibited”.
For “283: mimetic peptide WRQAAFVDSY [Number 283]”, the “inhibition of Pannexin 1” value in the data set with Pannexin 1 is reported as “inhibited”.
Regarding `Nc1ncnc2c1ncn2[C@@H]1O[C@H](COP(=O)(O)OP(=O)(O)OP(=O)(O)O)[C@@H](O)[C@H]1O` [ATP], the “inhibition of Pannexin 1” value on Pannexin 1 was “inhibits”.
As for `CC1(C(=O)O)CCC2(C)CCC3(C)C(=CC(=O)C4C5(C)CCC(OC(=O)CCC(=O)O)C(C)(C)C5CCC43C)C2C1` (stereo not drawn) [Number 3, 18β-glycyrrhetinic acid 3β-O-hemisuccinate], the “ethanol intake in non-dependent and dependent mice (CIE paradigm)” value in [1] (listed as CBX) is recorded as “reduces”; in data set [1] (listed as Carbenoxolone) it was “reduced”. Also, the “ethanol intake, dependent mice” value in data set [1] (limited access (2 h) 2-bottle choice after alcohol vapor, 40 mg/kg IP) is listed as “reduced”. For the same molecule, the “ethanol intake, non-dependent mice” value in data set [1] (limited access (2 h) 2-bottle choice, 20 and 40 mg/kg IP) is “reduced”. Also, the “time course of the effect on ethanol intake within the DID session” value with C57BL/6J mice is on record as “more pronounced in the first 2 hours”. In addition, the entries for the “ethanol intake in the DID paradigm” value with C57BL/6J mice (listed as CBX) and with C57BL/6J mice (listed as Carbenoxolone) were “reduce” and “reduced”, respectively. Moreover, in the data set with Wistar rats, the “operant self-administration of saccharin-sweetened water” value is reported as “did not affect”. In addition, the “operant alcohol self-administration (lever press responding for alcohol)” value is “decreases; also recorded: dose-dependently reduced” in data set [2] (0, 20, 40 mg/kg IP 90 min prior, 30 min session, FR1, listed as CBX); “effectively and dose-dependently reduces” in data set [2] (0, 20, 40 mg/kg IP 90 min prior, 30 min session, FR1, listed as carbenoxolone). Moreover, in data set [2] (dependent and nondependent rats, 0, 20, 40 mg/kg IP 90 min prior, 30 min session, FR1, listed as CBX), the “water intake / water responding” value was “did not influence; also recorded: No significant effects”. In addition, the “crossing of the blood brain barrier (BBB)” value in data set [3] was “does not effectively cross”.
As to `CC1(C)[C@@H](OC(=O)CCC(=O)O)CC[C@]2(C)[C@H]3C(=O)C=C4[C@@H]5C[C@@](C)(C(=O)O)CC[C@]5(C)CC[C@@]4(C)[C@]3(C)CC[C@@H]12` [Number 4, 18α-glycyrrhetinic acid 3β-O-hemisuccinate], in the data set on C57BL/6J mice, the “time course of the effect on ethanol intake within the DID session” value is “more pronounced in the first 2 hours” and the “ethanol intake in the DID paradigm” value is listed as “reduce”.
With `CS(=O)(=O)NCCC(=O)N1CCC(c2cc(C(=O)N3CCC[C@H]4CCCC[C@H]43)cs2)CC1` [Number 114], the Specificity with 11β-HSD1, 11β-HSD2 is 11β- HSD1 > 2.
As for `COc1ccc2nc(NS(=O)(=O)c3ccccc3)sc2c1` [Number 115], in the data set with 11β-HSD1, 11β-HSD2, the Specificity is recorded as 11β- HSD1 > 2.
Consider `CC(C)(Oc1ccc(Cl)cc1)C(=O)Nc1nnn[nH]1` [Number 116], for which the Specificity in the data set on 11β-HSD1, 11β-HSD2 is reported as 11β- HSD1 > 2.
As to `Cc1nc2c(Cl)c(NS(=O)(=O)c3cc(Cl)ccc3Cl)ccc2s1` [Number 117], the Specificity in the data set on 11β-HSD1, 11β-HSD2 is 11β- HSD1 > 2.
As for `O=C(Nc1ccc2scnc2c1)c1cc(Cl)cc(Cl)c1` [Number 118], the Specificity with 11β-HSD1, 11β-HSD2 is listed as 11β- HSD1 > 2.
For the molecule `CN(Cc1cccs1)C(=O)C12CC3CC(CC(C3)C1)C2` [Number 119], the Specificity in the data set with 11β-HSD1, 11β-HSD2 is 11β- HSD1 > 2.
As to `Cc1ccc(C2(C(=O)N(C)Cc3cccs3)CC2)cc1` [Number 120], in the data set with 11β-HSD1, 11β-HSD2, the Specificity was 11β- HSD1 > 2.
Take `CN(C)C(=O)c1ccc(COCC(=O)C23CC4CC(CC(C4)C2)C3)cc1` [Number 121]: in the data set with 11β-HSD1, 11β-HSD2, the Specificity is 11β- HSD1 > 2.
Consider `COc1cccc(C(=O)CSc2nnc(C)s2)c1` [Number 123], for which the Specificity with 11β-HSD1, 11β-HSD2 was 11β- HSD1 > 2.
With `Cn1cnnc1SCC(=O)C12CC3CC(CC(C3)C1)C2` [Number 124], in the data set on 11β-HSD1, 11β-HSD2, the Specificity is given as 11β- HSD1 > 2.
As to `Cn1c(N2CCN(S(=O)(=O)c3ccc(C(C)(C)C)cc3)CC2)nc2ccccc21` [Number 125], in the data set on 11β-HSD1, 11β-HSD2, the Specificity is given as 11β- HSD1 > 2.
Take `Cc1ccc(S(=O)(=O)N2CCN(c3nc4ccccc4n3C)CC2)cc1` [Number 126]: the Specificity in the data set with 11β-HSD1, 11β-HSD2 was 11β- HSD1 > 2.
As for `CC1(C)[C@@H](O)CC[C@]2(C)[C@H]3C(=O)C=C4[C@@](C)(CC[C@@]5(C)CC[C@@]6(C)C[C@@]45OC6=O)[C@]3(C)CC[C@@H]12` [Number 248], the Specificity in the data set with 11β-HSD1, 11β-HSD2 is given as 11β- HSD1 > 2.
Regarding `CC(=O)O[C@H]1CC[C@]2(C)[C@H]3C(=O)C=C4[C@H]5C[C@@](C)(NS(C)(=O)=O)CC[C@]5(C)CC[C@@]4(C)[C@]3(C)CC[C@H]2C1(C)C` [Number 251], the Specificity with 11β-HSD1, 11β-HSD2 was 11β- HSD1 > 2.
Turning to `CCOc1ccc(Nc2ccc(/C(=C3C=C/C(=[N+](/CC)Cc4cccc(S(=O)(=O)[O-])c4)C=C/3C)c3ccc(N(CC)Cc4cccc(S(=O)(=O)[O-])c4)cc3C)cc2)cc1.[Na+]` [Number 256, Acid blue 90, Coomassie Brilliant Blue G], the “inhibition of Pannexin 1” value on Pannexin 1 was “most selective and least detrimental Pannexin 1 inhibitor”.
As for `CCCN(CCC)S(=O)(=O)c1ccc(C(=O)O)cc1` [Number 257, Probenecid], the “alcohol self-administration, alcohol dependent rats” value in data set [2] (acute, systemic administration) is “decreases”. On Pannexin 1, the “inhibition of Pannexin 1” value is reported as “inhibits”. Besides, the “inflammasome activation in neurons and astrocytes” value in [4] is “prevents”.
In the case of `Nc1ncnc2c1ncn2[C@@H]1O[C@H](COP(=O)(O)OP(=O)(O)OP(=O)(O)O)C(OC(=O)c2ccc(C(=O)c3ccccc3)cc2)C1O` (stereo partly shown) [Number 265, 2′(3′)-O-(4-Benzoylbenzoyl)adenosine 5′-triphosphate triethylammonium salt], the “inhibition of Pannexin 1” value at Pannexin 1 is “inhibit Pannexin 1 more effectively than AYP”.
For `O=C(O)c1ccccc1Nc1cccc(C(F)(F)F)c1` [flufenamic acid], the “inhibition of Pannexin 1” value at Pannexin 1 is given as “found to inhibit the channel”.
On to `CC#C[C@]1(O)CC[C@H]2[C@@H]3CCC4=CC(=O)CCC4=C3[C@@H](c3ccc(N(C)C)cc3)C[C@@]21C` [mifepristone], for which the “escalated alcohol drinking and compulsive response for alcohol” value in the data set with dependent rats is listed as “blocked”.

The record behind these values is patent US10039772B2, “Methods and compositions for treating alcohol use disorders” (priority 2015, dated 2018).
